Structures can show the parent of a compound that is named as a salt.
Key:
human PDE IVA = target: T1, human PDE IVA (Homo sapiens, UniProt P27815); assay: Isolated recombinant human PDE IVA enzyme, phosphodiesterase activity; assay type: biochemical; details: 0.1 μM [3H]-cAMP, pH 7.5, 30° C.
T1 construct: made in house; host or cells: yeast (inducible vector)
Excerpt: A gene encoding human PDE IV has been cloned from human monocytes (Livi, et al., 1990, Molecular and Cellular Biology, 10, 2678). Using similar procedures we have cloned human PDE IV genes from a number of sources including eosinophils, neutrophils, lymphocytes, monocytes, brain and neuronal tissues. These genes have been transfected into yeast using an inducible vector and various recombinant proteins have been expressed which have the biochemical characteristics of PDE IV (Beavo and Reifsnyder, 1990, TIPS, 11, 150). These recombinant enzymes, particularly the human eosinophil recombinant PDE IVA, have been used as the basis of a screen for potent, selective PDE IV inhibitors.
The enzymes were purified to isoenzyme homogeneity using standard chromatographic techniques.
Phosphodiesterase activity was assayed as follows. The reaction was conducted in 150 μl of standard mixture containing (final concentrations): 50 mM 2-[[tris(hydroxymethyl)methyl]amino]-1-ethanesulphonic acid (TES) --NaOH buffer (pH 7.5), 10 mM MgCl2, 0.1 μM [^3 H]-cAMP and vehicle or various concentrations of the test compounds. The reaction was initiated by addition of enzyme and conducted at 30° C. for between 5 to 30 min. The reaction was terminated by addition of 50 μl 2% trifluoroacetic acid containing [^14 C]-5'AMP for determining recovery of the product. An aliquot of the sample was then applied to a column of neutral alumina and the [^3 H]-cAMP eluted with 10 ml 0.1 TES-NaOH buffer (pH8). The [^3 H]-5'-AMP product was eluted with 2 ml 2M NaOH into a scintillation vial containing 10 ml of scintillation cocktail. Recovery of [^3 H]-5'AMP was determined using the [^14 C]-5'AMP and all assays were conducted in the linear range of the reaction. Results were expressed as IC50 values.

[1] = Rat hepatocyte metabolism; assay type: in vitro ADME; details: rat hepatocytes, after 3 h; read-out: percentage of compound remaining
Experimental: The quantity of compound remaining after a fixed period of time was then determined using mass spectroscopy.
Thus in one such test the compound of Example 1 was compared with a related compound particularly described in International Patent Specification No. WO94/14742 in which the phenylsulphonyl group in the compound of Example 1 is replaced by a hydrogen atom. After 3 h the percentage of each compound remaining was: […]

[2] = Plasma levels after oral administration to squirrel monkeys; assay type: in vivo; details: monkey, 10 mg/kg p.o., after 30 min, read-out: plasma level
Experimental: The same two compounds were also administered orally to squirrel monkeys at 10 mg/kg p.o,. and the plasma levels of each determined. After 1 h the […] compound was present at 1 μg/ml whereas after 30 min the compound of Example 1 was present at 34 μg/ml, thus illustrating the good oral availability of the compound.

T1 sequence (P27815 whole entry): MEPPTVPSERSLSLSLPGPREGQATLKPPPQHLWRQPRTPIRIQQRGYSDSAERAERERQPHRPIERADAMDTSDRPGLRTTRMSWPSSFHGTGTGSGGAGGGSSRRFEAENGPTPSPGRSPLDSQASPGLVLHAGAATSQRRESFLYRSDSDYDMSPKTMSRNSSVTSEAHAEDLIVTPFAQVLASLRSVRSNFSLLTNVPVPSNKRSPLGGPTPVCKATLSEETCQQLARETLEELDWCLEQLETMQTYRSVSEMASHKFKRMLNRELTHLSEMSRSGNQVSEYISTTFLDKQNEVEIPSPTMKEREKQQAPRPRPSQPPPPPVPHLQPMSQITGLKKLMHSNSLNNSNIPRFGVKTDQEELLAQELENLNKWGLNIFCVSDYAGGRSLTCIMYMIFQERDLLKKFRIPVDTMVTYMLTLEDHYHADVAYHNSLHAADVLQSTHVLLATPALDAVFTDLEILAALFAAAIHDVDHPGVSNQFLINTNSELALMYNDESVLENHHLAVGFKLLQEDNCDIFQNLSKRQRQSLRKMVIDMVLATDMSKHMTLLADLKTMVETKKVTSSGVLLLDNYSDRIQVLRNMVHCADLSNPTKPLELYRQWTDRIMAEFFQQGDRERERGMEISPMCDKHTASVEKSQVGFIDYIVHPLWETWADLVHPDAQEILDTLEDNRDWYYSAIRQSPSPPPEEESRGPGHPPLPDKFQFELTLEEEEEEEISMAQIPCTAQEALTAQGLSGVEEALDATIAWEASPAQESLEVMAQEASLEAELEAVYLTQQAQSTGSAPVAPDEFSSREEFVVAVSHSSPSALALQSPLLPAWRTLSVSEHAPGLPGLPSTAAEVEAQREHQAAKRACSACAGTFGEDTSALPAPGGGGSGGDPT

IC50 (human PDE IVA) | remaining at 3 h [1] | concentration at 0.5 h [2] | SMILES
17.6 nM |  |  | COc1ccc([C@H](Cc2ccncc2)c2ccc(NC(=O)NS(=O)(=O)c3ccc(Cl)cc3)cc2)cc1OC1CCCC1 [Example 3, (R)-N-[4-{1-(3-Cyclopentyloxy-4-methoxyphenyl)-2-(4-pyridyl)ethyl}-phenyl]-N'-(4-chlorophenylsulphonyl) urea, hydrochloride]
13.9 nM |  |  | COc1ccc([C@H](Cc2ccncc2)c2ccc(NC(=O)NS(=O)(=O)c3ccc(C)cc3)cc2)cc1OC1CCCC1 [Example 2, (R)-N-[4-{1-(3-Cyclopentyloxy-4-methoxyphenyl)-2-(4-pyridyl)ethyl}-phenyl]-N'-(methylphenylsulphonyl) urea, hydrochloride]
4 nM | 56% | 34000 ng/mL | COc1ccc([C@H](Cc2ccncc2)c2ccc(NC(=O)NS(=O)(=O)c3ccccc3)cc2)cc1OC1CCCC1 [Example 1, (R)-N-[4-{1-(3-Cyclopentyloxy-4-methoxyphenyl)-2-(4-pyridyl)ethyl}-phenyl]-N'-(phenylsulphonyl) urea, hydrochloride]
